Results from PubChem BioAssay AID2202555 (NIEHS Division of Translational Toxicology (DTT)).
Results filed as inconclusive are left out. Calls of active or inactive are those of the source. The rule behind the calls is not given here.

Tested on: rat and mouse 2-year carcinogenicity bioassay, tumor evidence
Experiment: Consolidated carcinogenicity assay summary data
From the text: Cancer Evaluation Criteria
The National Toxicology Program describes the results of individual experiments on a chemical agent and notes the strength of the evidence for conclusions regarding each study. […] Other organizations, such as the International Agency for Research on Cancer, assign a strength of evidence for conclusions based on an examination of all available evidence, including animal studies such as those conducted by the NTP, epidemiologic studies, and estimates of exposure. Thus, the actual determination of risk to humans from chemicals found to be carcinogenic in laboratory animals requires a wider analysis that extends beyond the purview of these studies.
Five categories of evidence of carcinogenic activity are used in the Technical Report series to summarize the strength of evidence observed in each experiment: two categories for positive results (clear evidence and some evidence); one category for uncertain findings (equivocal evidence); one category for no observable effects (no evidence); and one category for experiments that cannot be evaluated because of major flaws (inadequate study). These categories of interpretative conclusions were first adopted in June 1983 and then revised on March 1986 for use in the Technical Report series to incorporate more specifically the concept of actual weight of evidence of carcinogenic activity. For each separate experiment (male rats, female rats, male mice, female mice), one of the following five categories is selected to describe the findings. These categories refer to the strength of the experimental evidence and not to potency or mechanism.
For studies showing multiple chemical-related neoplastic effects that if considered individually would be assigned to different levels of evidence categories, the following convention has been adopted to convey completely the study results. In a study with clear evidence of carcinogenic activity at some tissue sites, other responses that alone might be deemed some evidence are indicated as "were also related" to chemical exposure. In studies with clear or some evidence of carcinogenic activity, other responses that alone might be termed equivocal evidence are indicated as "may have been" related to chemical exposure.
When a conclusion statement for a particular experiment is selected, consideration must be given to key factors that would extend the actual boundary of an individual category of evidence. Such consideration should allow for incorporation of scientific experience and current understanding of long-term carcinogenesis studies in laboratory animals, especially for those evaluations that may be on the borderline between two adjacent levels. These considerations should include:
- adequacy of the experimental design and conduct;
- occurrence of common versus uncommon neoplasia;
- progression (or lack thereof) from benign to malignant neoplasia as well as from preneoplastic to neoplastic lesions;
- some benign neoplasms have the capacity to regress but others (of the same morphologic type) progress. At present, it is impossible to identify the difference. Therefore, where progression is known to be a possibility, the most prudent course is to assume that benign neoplasms of those types have the potential to become malignant;
- combining benign and malignant tumor incidences known or thought to represent stages of progression in the same organ or tissue;
- latency in tumor induction;
- multiplicity in site -specific neoplasia;
- supporting information from proliferative lesions (hyperplasia) in the same site of neoplasia or in other experiments (same lesion in another sex or species);
- presence or absence of dose relationships;
- statistical significance of the observed tumor increase;
- concurrent control tumor incidence as well as the historical control rate and variability for a specific neoplasm;
- survival-adjusted analyses and false positive or false negative concerns;
- structure-activity correlations; and
[…]

[1] = Route (rodents): Interperitoneal
[2] = Route (rodents): Inhalation, Second Route: Gavage

SMILES | carcinogen call (Route (rodents): Gavage) | carcinogen call (Route (rodents): Dosed feed) | also measured
Nc1ncn([C@@H]2O[C@H](CO)[C@@H](O)[C@H]2O)c(=O)n1 | – | – | carcinogen call [1]: active; inadequate study
O=Cc1ccco1 | active; some evidence | – | –
Cc1cccnc1 | – | – | carcinogen call (Route (rodents): Dosed water): active; no evidence
O=P1(NCCCl)OCCCN1CCCl (stereo not given) | – | – | carcinogen call [1]: active; no evidence
[O]=[Cr](=[O])([OH])[O][Cr](=[O])(=[O])[OH] | – | – | carcinogen call (Route (rodents): Dosed water): active; clear evidence
c1ccc2occc2c1 | active; no evidence | – | –
Cc1cc(Cl)ccc1N | – | active; no evidence | –
Cc1ccc(N=Nc2c(O)ccc3ccccc23)c([N+](=O)[O-])c1 | – | active; some evidence | –
Cc1ncc[nH]1 | – | active; some evidence | –
Nc1cccc2c(N)cccc12 | – | active; no evidence | –
COc1cc2c(c3c1c(=O)c1ccccc1n3C)C=CC(C)(C)O2 | – | – | carcinogen call [1]: active; clear evidence
C=CC(=O)NCO | active; no evidence | – | –
ClC(Cl)(Cl)C(Cl)(Cl)Cl | active; clear evidence | – | –
COC(=O)C(c1ccccc1)C1CCCCN1 (stereo not given) | – | active; no evidence | –
Nc1ccc(Cl)cc1N | – | active; clear evidence | –
CCCCOC(=O)c1ccccc1C(=O)OCc1ccccc1 | – | active; some evidence | –
CC(C)=CCl | active; clear evidence | – | –
O=Nc1ccc(NO)cc1 | – | active; no evidence | –
N=C1C=CC(=C(c2ccc(N)cc2)c2ccc(N)cc2)C=C1 | – | active; clear evidence | –
S=P(N1CC1)(N1CC1)N1CC1 | – | – | carcinogen call [1]: active; clear evidence
O=C1c2ccccc2-c2ccc3c4c(ccc1c24)-c1ccccc1C3=O | – | active; no evidence | –
CN(C)c1ccc(C(c2ccccc2)c2ccc(N(C)C)cc2)cc1 | – | active; equivocal evidence | –
COC(N)=O | active; clear evidence | – | –
C#CCO | – | – | carcinogen call (Route (rodents): Inhalation): active; some evidence
O=C(O)CN(CC(=O)O)CC(=O)O | – | active; clear evidence | –

SMILES | carcinogen call (Route (rodents): Gavage) | carcinogen call (Route (rodents): Dosed feed) | also measured
[Cl-].[Cl-].[Hg+2] | active; some evidence | – | –
CNC(=S)N(C)C | – | active; no evidence | –
Oc1ccc(Cl)cc1Cc1ccccc1 | active; no evidence | – | –
O=[N+]([O-])c1ccc2c3c(cccc13)CC2 | – | active; clear evidence | –
C=C(Cl)CSC(=S)N(CC)CC | – | active; clear evidence | –
COc1ccc(N)cc1N | – | active; clear evidence | –
CC=CC=CC=O | active; clear evidence | – | –
Nc1ccc(N)c2c1C(=O)c1c(N)ccc(N)c1C2=O | – | active; clear evidence | –
ClC(Br)Br | active; no evidence | – | –
Nc1nc(=S)c2ncn([C@H]3C[C@H](O)[C@@H](CO)O3)c2[nH]1 | – | – | carcinogen call [1]: active; equivocal evidence
ClCC(Cl)(Cl)Cl | active; equivocal evidence | – | –
Oc1ccc2ccccc2c1N=Nc1ccccc1 | – | active; clear evidence | –
BrC(Br)Br | active; some evidence | – | –
C=CCc1ccc(OC)c(OC)c1 | active; clear evidence | – | –
Cc1ccc(N(C)C)cc1 | active; clear evidence | – | –
BrCCBr | – | – | carcinogen call [2]: active; clear evidence
Nc1ccc2c(c1)C(=O)c1ccccc1C2=O | – | active; clear evidence | –
C=C(Cl)Cl | – | – | carcinogen call [2]: active; clear evidence
Cc1ccc(Cl)cc1N | – | active; no evidence | –
NC(=O)NN=Cc1ccc([N+](=O)[O-])o1 | – | active; equivocal evidence | –
CCCl | – | – | carcinogen call (Route (rodents): Inhalation): active; equivocal evidence
Nc1cc(Cl)cc(C(=O)O)c1Cl | – | active; no evidence | –
Nc1ccc(O)c(N)c1 | active; no evidence | – | –
C=C(C)C | – | – | carcinogen call (Route (rodents): Inhalation): active; some evidence
CCC1CO1 (stereo not given) | – | – | carcinogen call (Route (rodents): Inhalation): active; clear evidence
